Assays:
[1] = biological target: Glutamate receptor ionotropic AMPA (Homo sapiens, UniProt P42261+P42262+P42263+P48058)
Description: Displacement of [3H]AMPA from AMPA receptor

Mus musculus = experiment: In vivo AMPA antagonism to protect 50% animals after intraperitoneal administration of the compound; type: functional; settings: ip
[2] = biological target: Glutamate receptor ionotropic, NMDA 2C (Rattus norvegicus, UniProt Q00961); experiment: Ability to displace [3H]glycine from NMDA receptor
Chain of Glutamate receptor ionotropic, NMDA 2C (Q00961 whole entry): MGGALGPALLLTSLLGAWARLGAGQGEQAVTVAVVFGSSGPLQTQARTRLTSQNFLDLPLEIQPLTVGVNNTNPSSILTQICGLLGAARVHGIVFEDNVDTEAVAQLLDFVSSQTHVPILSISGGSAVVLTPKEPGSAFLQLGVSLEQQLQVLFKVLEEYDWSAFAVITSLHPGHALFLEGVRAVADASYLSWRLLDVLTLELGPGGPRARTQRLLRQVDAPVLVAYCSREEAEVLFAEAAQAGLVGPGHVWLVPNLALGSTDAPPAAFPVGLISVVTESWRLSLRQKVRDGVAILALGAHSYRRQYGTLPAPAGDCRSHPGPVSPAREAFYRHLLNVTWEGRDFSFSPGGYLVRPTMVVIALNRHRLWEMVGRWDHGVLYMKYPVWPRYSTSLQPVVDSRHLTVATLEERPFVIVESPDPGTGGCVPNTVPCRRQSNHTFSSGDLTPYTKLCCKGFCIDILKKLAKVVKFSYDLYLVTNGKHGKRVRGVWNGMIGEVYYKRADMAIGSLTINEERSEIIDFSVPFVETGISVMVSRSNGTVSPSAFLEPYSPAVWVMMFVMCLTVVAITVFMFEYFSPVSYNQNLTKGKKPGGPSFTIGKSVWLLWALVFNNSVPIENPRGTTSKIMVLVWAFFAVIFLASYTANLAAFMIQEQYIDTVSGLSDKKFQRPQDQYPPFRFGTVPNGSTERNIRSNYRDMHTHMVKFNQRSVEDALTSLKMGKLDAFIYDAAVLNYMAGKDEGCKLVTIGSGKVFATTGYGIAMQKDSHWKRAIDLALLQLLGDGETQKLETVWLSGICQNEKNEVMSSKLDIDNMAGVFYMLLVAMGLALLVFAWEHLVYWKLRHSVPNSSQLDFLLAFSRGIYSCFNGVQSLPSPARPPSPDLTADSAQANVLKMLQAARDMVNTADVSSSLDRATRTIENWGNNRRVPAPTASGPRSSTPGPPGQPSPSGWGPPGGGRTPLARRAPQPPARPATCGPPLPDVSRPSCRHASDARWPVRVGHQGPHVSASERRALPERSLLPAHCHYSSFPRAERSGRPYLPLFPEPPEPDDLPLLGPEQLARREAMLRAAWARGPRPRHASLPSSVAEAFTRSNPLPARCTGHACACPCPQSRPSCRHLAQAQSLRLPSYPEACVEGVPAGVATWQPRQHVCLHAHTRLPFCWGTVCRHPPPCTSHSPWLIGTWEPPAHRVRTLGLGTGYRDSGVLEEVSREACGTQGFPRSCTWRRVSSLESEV

SMILES | Ki [1] [nM] | Ki [2] [µM] | ED50 (Mus musculus) [mg/kg]
CN(Cc1ccccc1)Cc1ccn(-c2cc3nc(O)c(O)nc3cc2[N+](=O)[O-])c1 | 880 |  | 
O=C(O)Cn1c(=O)c(=O)[nH]c2cc(C(F)(F)F)c(-n3ccc(CNC(=O)Nc4ccc(Br)cc4)c3)cc21 | 4 | > 30 | 4.1
O=C(O)Cn1c(=O)c(=O)[nH]c2cc([N+](=O)[O-])c(-n3ccc(/C=N/OCc4ccccc4)c3)cc21 | 210 |  | 
O=C(O)Cn1c(=O)c(=O)[nH]c2cc([N+](=O)[O-])c(-n3ccc(CNC(=O)Nc4ccccc4)c3)cc21 | 71 | > 30 | > 30
O=C(O)Cn1c(=O)c(=O)[nH]c2cc(C(F)(F)F)c(-n3ccc(CNC(=O)NCc4ccccc4)c3)cc21 | 49 | > 30 | 30
O=C(O)Cn1c(=O)c(=O)[nH]c2cc(C(F)(F)F)c(-n3ccc(CNC(=O)Cc4ccccc4)c3)cc21 | 140 |  | 
O=C(O)Cn1c(=O)c(=O)[nH]c2cc([N+](=O)[O-])c(-n3ccc(CNC(=O)NCCc4ccncc4)c3)cc21 | 95 |  | 
O=C(O)Cn1c(=O)c(=O)[nH]c2cc(C(F)(F)F)c(-n3ccc(CNC(=O)Nc4ccc([N+](=O)[O-])cc4)c3)cc21 | 5 | > 30 | 5.5
O=C(O)Cn1c(=O)c(=O)[nH]c2cc([N+](=O)[O-])c(-n3cccc3)cc21 | 70 |  | 
O=C(O)Cn1c(=O)c(=O)[nH]c2cc(C(F)(F)F)c(-n3ccc(CNC(=O)Nc4ccc(C(F)(F)F)cc4)c3)cc21 | 5 | > 30 | 14
O=C(O)Cn1c(=O)c(=O)[nH]c2cc(C(F)(F)F)c(-n3ccc(CNC(=O)c4ccccc4)c3)cc21 | 78 | > 30 | > 30
O=C(O)Cn1c(=O)c(=O)[nH]c2cc([N+](=O)[O-])c(-n3ccc(CNC(=O)CCc4ccccc4)c3)cc21 | 500 |  | 
O=C(O)Cn1c(=O)c(=O)[nH]c2cc([N+](=O)[O-])c(-n3ccc(CC(=O)N4CCCCC4)c3)cc21 | 3000 |  | 
O=C(NCc1ccn(-c2cc3nc(O)c(O)nc3cc2[N+](=O)[O-])c1)Nc1ccncc1 | 110 |  | 
O=C(O)Cn1c(=O)c(=O)[nH]c2cc([N+](=O)[O-])c(-n3ccc(CNC(=O)c4ccncc4)c3)cc21 | 280 |  | 
NS(=O)(=O)c1cccc2c1c([N+](=O)[O-])cc1nc(O)c(O)nc12 [NBQX] |  |  | > 50
O=c1[nH]c2cc(-n3ccnc3)c([N+](=O)[O-])cc2[nH]c1=O [YM-90K] | 135 |  | 

Now from value to compound, other results behind:

Ki [1] [nM] | Ki [2] [µM] | SMILES | ED50 (Mus musculus) [mg/kg]
76 | > 30 | CC(=O)NCc1ccn(-c2cc3c(cc2C(F)(F)F)[nH]c(=O)c(=O)n3CC(=O)O)c1 | 10
180 |  | O=C(O)Cn1c(=O)c(=O)[nH]c2cc(C(F)(F)F)c(-n3cccc3)cc21 | 
840 |  | NCc1ccn(-c2cc3c(cc2[N+](=O)[O-])[nH]c(=O)c(=O)n3CC(=O)O)c1 | 
15 | > 30 | O=C(O)Cn1c(=O)c(=O)[nH]c2cc(C(F)(F)F)c(-n3ccc(CNC(=O)Nc4ccccc4)c3)cc21 | 18
980 |  | NCc1ccn(-c2cc3nc(O)c(O)nc3cc2C(F)(F)F)c1 | 
10000 |  | NCc1ccn(-c2cc3c(cc2C(F)(F)F)[nH]c(=O)c(=O)n3CC(=O)O)c1 | 
400 |  | O=[N+]([O-])c1cc2nc(O)c(O)nc2cc1-n1cccc1 | 
250 |  | O=C(O)Cn1c(=O)c(=O)[nH]c2cc(C(F)(F)F)c(-n3ccc(/C=N/OCc4ccccc4)c3)cc21 | 
3000 |  | Oc1nc2cc(-n3cccc3)c(C(F)(F)F)cc2nc1O | 
650 |  | O=Cc1ccn(-c2cc3nc(O)c(O)nc3cc2C(F)(F)F)c1 | 
> 25000 |  | COC(=O)c1cccn1-c1cc2nc(O)c(O)nc2cc1C(F)(F)F | 
> 25000 |  | O=C(O)c1cccn1-c1cc2nc(O)c(O)nc2cc1C(F)(F)F | 
20000 |  | Cc1ccc(C)n1-c1cc2nc(O)c(O)nc2cc1[N+](=O)[O-] | 
> 25000 |  | Cc1ccc(C)n1-c1cc2nc(O)c(O)nc2cc1C(F)(F)F | 
250 | > 30 | O=C(NCc1ccn(-c2cc3nc(O)c(O)nc3cc2[N+](=O)[O-])c1)Nc1ccccc1 | 30
2000 |  | Cc1ccc(C)n1-c1cc2c(cc1C(F)(F)F)[nH]c(=O)c(=O)n2CC(=O)O | 
> 25000 |  | O=C(NCc1ccccc1)c1cccn1-c1cc2nc(O)c(O)nc2cc1C(F)(F)F | 
890 |  | CCN(CC)Cc1ccn(-c2cc3c(cc2C(F)(F)F)[nH]c(=O)c(=O)n3CC(=O)O)c1 | 
2000 |  | NCc1ccn(-c2cc3nc(O)c(O)nc3cc2[N+](=O)[O-])c1 | 

Source: ChEMBL document CHEMBL1130362, “Pyrrolylquinoxalinediones: The importance of pyrrolic substitution on AMPA receptor binding” (Bioorg Med Chem Lett, 1997)
